Assay results reported in patent US8772323B2, “Benzoxazole- and tetrahydrobenzoxazole-substituted pyridazinones as GPR119 agonists” (Boehringer Ingelheim International GmbH, priority 2010, dated 2014).
Where a name gives a salt, the structure may show the parent alone.

Biological target: human GPR119 (Homo sapiens (Human), UniProt Q8TDV5)
Assay: AlphaScreen cAMP assay in Min-6/hGPR119 cells (GPR119 activation, intracellular cAMP)
Assay type: cell-based
Conditions: MIN6 cells stably transfected with human GPR119; 45 minutes' incubation at RT; AlphaScreen cAMP Assay Kit
How it was run: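 MIN6 cells stably expressing human GPR119 plated 10000 cells/well and held 24 h at 37° C. Compounds applied in stimulating buffer, pH 7.4, with 0.5 mM IBMX, 0.1% BSA, 1% DMSO final, for 45 min at RT. Intracellular cAMP read by AlphaScreen.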

human GPR119, sequence (Q8TDV5 whole entry): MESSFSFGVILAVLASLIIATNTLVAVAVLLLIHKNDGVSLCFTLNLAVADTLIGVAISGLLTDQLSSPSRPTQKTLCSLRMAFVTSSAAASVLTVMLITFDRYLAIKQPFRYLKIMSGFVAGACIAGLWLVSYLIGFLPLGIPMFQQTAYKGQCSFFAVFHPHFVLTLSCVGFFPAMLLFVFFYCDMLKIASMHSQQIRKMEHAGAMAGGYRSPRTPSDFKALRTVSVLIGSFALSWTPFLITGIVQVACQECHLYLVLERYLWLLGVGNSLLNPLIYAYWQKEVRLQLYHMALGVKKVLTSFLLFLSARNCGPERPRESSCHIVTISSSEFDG

Structure (SMILES)	EC50 [nM]
CC1CC(=O)NN=C1c1ccc2nc(-c3cccc(OCC4CCNCC4)c3)oc2c1 (centres unmarked) [Example 73, 5-methyl-6-{2-[3-(piperidin-4-ylmethoxy)-phenyl]-benzoxazol-6-yl}-4,5-dihydro-2H-pyridazin-3-one hydrochloride]	6770
CCC1CC(=O)NN=C1c1ccc2nc(-c3ccc(OCC4CCN(S(C)(=O)=O)CC4)cc3)oc2c1 (centres unmarked) [Example 74, 5-ethyl-6-{2-[4-(1-methanesulphonyl-piperidin-4-ylmethoxy)-phenyl]-benzoxazol-6-yl}-4,5-dihydro-2H-pyridazin-3-one]	240
CCC1CC(=O)NN=C1c1ccc2nc(-c3ccc(/C=C/c4ccccc4)cc3)oc2c1 (centres unmarked) [Example 75, 5-ethyl-6-{2-[4-styryl-phenyl]-benzoxazol-6-yl}-4,5-dihydro-2H-pyridazin-3-one]	384
CCC1CC(=O)NN=C1c1ccc2nc(-c3ccc(CCc4ccccc4)cc3)oc2c1 (centres unmarked) [Example 76, 5-ethyl-6-[2-(4-phenethyl-phenyl)-benzoxazol-6-yl]-4,5-dihydro-2H-pyridazin-3-one]	245
COc1cccc(-c2nc3ccc(C4=NNC(=O)CC4C)cc3o2)c1 (centres unmarked) [Example 85, 6-[2-(3-methoxy-phenyl)-benzoxazol-6-yl]-5-methyl-4,5-dihydro-2H-pyridazin-3-one]	334
COc1ccccc1-c1nc2ccc(C3=NNC(=O)CC3C)cc2o1 (centres unmarked) [Example 86, 6-[2-(2-methoxy-phenyl)-benzoxazol-6-yl]-5-methyl-4,5-dihydro-2H-pyridazin-3-one]	1150
CC1CC(=O)NN=C1c1ccc2nc(-c3cccc(Cl)c3)oc2c1 (centres unmarked) [Example 88, 6-[2-(3-chloro-phenyl)-benzoxazol-6-yl]-5-methyl-4,5-dihydro-2H-pyridazin-3-one]	260
CC1CC(=O)NN=C1c1ccc2nc(-c3ccccc3Cl)oc2c1 (centres unmarked) [Example 89, 6-[2-(2-chloro-phenyl)-benzoxazol-6-yl]-5-methyl-4,5-dihydro-2H-pyridazin-3-one]	415
COC(=O)c1ccc(-c2nc3ccc(C4=NNC(=O)CC4C)cc3o2)cc1 (centres unmarked) [Example 90, methyl 4-[6-(4-methyl-6-oxo-1,4,5,6-tetrahydro-pyridazin-3-yl)-benzoxazol-2-yl]-benzoate]	763
CCC1CC(=O)NN=C1c1ccc2nc(-c3ccc(OC)c(OC)c3)oc2c1 (centres unmarked) [Example 92, 6-[2-(3,4-dimethoxy-phenyl)-benzoxazol-6-yl]-5-ethyl-4,5-dihydro-2H-pyridazin-3-one]	460
CCC1CC(=O)NN=C1c1ccc2nc(-c3ccc(F)c(OC)c3)oc2c1 (centres unmarked) [Example 93, 5-ethyl-6-[2-(4-fluoro-3-methoxy-phenyl)-benzoxazol-6-yl]-4,5-dihydro-2H-pyridazin-3-one]	397
CCC1CC(=O)NN=C1c1ccc2nc(-c3ccc(OC)c(F)c3)oc2c1 (centres unmarked) [Example 98, 5-ethyl-6-[2-(3-fluoro-4-methoxy-phenyl)-benzoxazol-6-yl]-4,5-dihydro-2H-pyridazin-3-one]	294
CCC1CC(=O)NN=C1c1ccc2nc(-c3cccc(OC(C)C)c3)oc2c1 (centres unmarked) [Example 100, 5-ethyl-6-[2-(3-isopropoxy-phenyl)-benzoxazol-6-yl]-4,5-dihydro-2H-pyridazin-3-one]	442
CCC1CC(=O)NN=C1c1ccc2nc(-c3cccc(OC)c3)oc2c1 (centres unmarked) [Example 102, 5-ethyl-6-[2-(3-methoxy-phenyl)-benzoxazol-6-yl]-4,5-dihydro-2H-pyridazin-3-one]	316
CCC1CC(=O)NN=C1c1ccc2nc(-c3ccc(OC(F)(F)F)cc3)oc2c1 (centres unmarked) [Example 103, 5-ethyl-6-[2-(4-trifluoromethoxy-phenyl)-benzoxazol-6-yl]-4,5-dihydro-2H-pyridazin-3-one]	1210
O=C1CCC(c2ccc3nc(-c4cccs4)oc3c2)=NN1 [Example 111, 6-(2-thiophen-2-yl-benzoxazol-6-yl)-4,5-dihydro-2H-pyridazin-3-one]	967
O=C1CCC(c2ccc3nc(-c4ccco4)oc3c2)=NN1 [Example 112, 6-(2-furan-2-yl-benzoxazol-6-yl)-4,5-dihydro-2H-pyridazin-3-one]	1320
O=C1CCC(c2ccc3nc(N4CCCCC4)oc3c2)=NN1 [Example 118, 6-(2-piperidin-1-yl-benzoxazol-6-yl)-4,5-dihydro-2H-pyridazin-3-one]	3740
O=C1CCC(c2ccc3nc(N4CCSCC4)oc3c2)=NN1 [Example 119, 6-(2-thiomorpholin-1-yl-benzoxazol-6-yl)-4,5-dihydro-2H-pyridazin-3-one]	3460
CC1CC(=O)NN=C1c1ccc2nc(-c3ccc(C#N)cc3)oc2c1 (centres unmarked) [Example 122, 4-[6-(4-methyl-6-oxo-1,4,5,6-tetrahydro-pyridazin-3-yl)-benzoxazol-2-yl]-benzonitrile]	4000
CC1CC(=O)NN=C1c1ccc2nc(-c3cccc(C#N)c3)oc2c1 (centres unmarked) [Example 123, 3-[6-(4-methyl-6-oxo-1,4,5,6-tetrahydropyridazin-3-yl)-1,3-benzoxazol-2-yl]benzonitrile]	902
CC1CC(=O)NN=C1c1ccc2nc(-c3ccc(CN)cc3)oc2c1 (centres unmarked) [Example 124, 6-[2-(4-aminomethyl-phenyl)-benzoxazol-6-yl]-5-methyl-4,5-dihydro-2H-pyridazin-3-one]	8720
CC1CC(=O)NN=C1c1ccc2nc(-c3cccc(CN)c3)oc2c1 (centres unmarked) [Example 125, 6-{2-[3-(aminomethyl)phenyl]1,3-benzoxazol-6-yl}-5-methyl-2,3,4,5-tetrahydropyridazin-3-one]	1600
CC[C@H]1C(=O)NN=C(c2ccc3nc(-c4ccccc4)oc3c2)[C@H]1C [Example 127, (4R,5S)-4-ethyl-5-methyl-6-(2-phenyl-1,3-benzoxazol-6-yl)-2,3,4,5-tetrahydropyridazin-3-one]	2590
O=C1NN=C(C2CCc3nc(-c4ccccc4)oc3C2)C2CC12 (centres unmarked) [Example 130, 5-(2-phenyl-4,5,6,7-tetrahydro-benzoxazol-6-yl)-3,4-diaza-bicyclo[4.1.0]hept-4-en-2-one]	814
O=C1NN=C([C@H]2CCc3nc(-c4ccccc4)oc3C2)[C@H]2C[C@@H]12 [Example 131, (1R,6S)-5-((S)-2-phenyl-4,5,6,7-tetrahydro-benzoxazol-6-yl)-3,4-diaza-bicyclo[4.1.0]hept-4-en-2-one]	7700

Stronger by EC50, values ahead:

EC50 [nM]	Structure (SMILES)
141	CCC1SC(=O)NN=C1c1ccc2nc(-c3ccccc3)oc2c1 (centres unmarked) [Example 77, 6-ethyl-5-(2-phenyl-benzoxazol-6-yl)-3,6-dihydro-[1,3,4]thiadiazin-2-one]
61	CCC1OC(=O)NN=C1c1ccc2nc(-c3ccccc3)oc2c1 (centres unmarked) [Example 78, 6-ethyl-5-(2-phenyl-benzoxazol-6-yl)-3,6-dihydro-[1,3,4]oxadiazin-2-one]
31	CC1OC(=O)NN=C1c1ccc2nc(-c3ccccc3)oc2c1 (centres unmarked) [Example 81, 6-methyl-5-(2-phenyl-1,3-benzoxazol-6-yl)-3,6-dihydro-2H-1,3,4-oxadiazin-2-one]
189	CC1CC(=O)NN=C1c1ccc2nc(-c3ccccc3)oc2c1 (centres unmarked) [Example 82, 5-methyl-6-(2-phenyl-benzoxazol-6-yl)-4,5-dihydro-2H-pyridazin-3-one]
94	COc1ccc(-c2nc3ccc(C4=NNC(=O)CC4C)cc3o2)cc1 (centres unmarked) [Example 83, 6-[2-(4-methoxy-phenyl)-benzoxazol-6-yl]-5-methyl-4,5-dihydro-2H-pyridazin-3-one]
132	CC1CC(=O)NN=C1c1ccc2nc(-c3ccc(Cl)cc3)oc2c1 (centres unmarked) [Example 84, 6-[2-(4-chloro-phenyl)-benzoxazol-6-yl]-5-methyl-4,5-dihydro-2H-pyridazin-3-one]
100	Cc1ccc(-c2nc3ccc(C4=NNC(=O)CC4C)cc3o2)s1 (centres unmarked) [Example 87, 5-methyl-6-[2-(5-methyl-thiophen-2-yl)-benzoxazol-6-yl]-4,5-dihydro-2H-pyridazin-3-one]
142	CCC1CC(=O)NN=C1c1ccc2nc(-c3ccc(OC)cc3F)oc2c1 (centres unmarked) [Example 91, 5-ethyl-6-[2-(2-fluoro-4-methoxy-phenyl)-benzoxazol-6-yl]-4,5-dihydro-2H-pyridazin-3-one]
67	CCC1CC(=O)NN=C1c1ccc2nc(-c3ccc(Oc4ccccc4)cc3)oc2c1 (centres unmarked) [Example 95, 5-ethyl-6-[2-(4-phenoxy-phenyl)-benzoxazol-6-yl]-4,5-dihydro-2H-pyridazin-3-one]
42	CCC1CC(=O)NN=C1c1ccc2nc(-c3ccc(N(C)C)cc3)oc2c1 (centres unmarked) [Example 96, 6-[2-(4-dimethylamino-phenyl)-benzoxazol-6-yl]-5-ethyl-4,5-dihydro-2H-pyridazin-3-one]
225	CCC1CC(=O)NN=C1c1ccc2nc(-c3cc(C)cs3)oc2c1 (centres unmarked) [Example 97, 5-ethyl-6-[2-(4-methyl-thiophen-2-yl)-benzoxazol-6-yl]-4,5-dihydro-2H-pyridazin-3-one]
59	CCC1CC(=O)NN=C1c1ccc2nc(-c3ccc(OC(C)C)cc3)oc2c1 (centres unmarked) [Example 99, 5-ethyl-6-[2-(4-isopropoxy-phenyl)-benzoxazol-6-yl]-4,5-dihydro-2H-pyridazin-3-one]
194	CCC1CC(=O)NN=C1c1ccc2nc(-c3ccc(C)s3)oc2c1 (centres unmarked) [Example 101, 5-ethyl-6-[2-(5-methyl-thiophen-2-yl)-benzoxazol-6-yl]-4,5-dihydro-2H-pyridazin-3-one]
120	CCC1CC(=O)NN=C1c1ccc2nc(-c3ccc(OC)cc3)oc2c1 (centres unmarked) [Example 104, 5-ethyl-6-[2-(4-methoxy-phenyl)-benzoxazol-6-yl]-4,5-dihydro-2H-pyridazin-3-one]
80	CCC1CC(=O)NN=C1c1ccc2nc(-c3ccc(OC4CCOCC4)cc3)oc2c1 (centres unmarked) [Example 105, 5-ethyl-6-{2-[4-(tetrahydro-pyran-4-yloxy)-phenyl]-benzoxazol-6-yl}-4,5-dihydro-2H-pyridazin-3-one]
